Data reported in ChEMBL document CHEMBL1148658, “New HIV-1 reverse transcriptase inhibitors based on a tricyclic benzothiophene scaffold: synthesis, resolution, and inhibitory activity” (Bioorg Med Chem Lett, 2006).

Target: Human immunodeficiency virus type 1 reverse transcriptase (Human immunodeficiency virus 1, UniProt Q72547)
Assay: Inhibition of wild type HIV1 reverse transcriptase in 293T cells
Type: cell-based

How did the IC50 turn out when `COC(=O)C1=C(N2CCCC2)C2c3ccccc3SC12C(=O)OC` (configuration not stated) was run?
The IC50 was 1.2 µM.

How did the IC50 turn out when `COC(=O)C1=C(N2CCCCC2)[C@H]2c3ccccc3S[C@@]12C(=O)OC` was run?
Its IC50 is 7.7 µM.

For `CCOC(=O)C1=C(N2CCCC2)C2c3ccccc3SC12C(=O)OCC` (configuration not stated), which IC50 is on record?
Its IC50 is > 20 µM.

`COC(=O)C1=C(N2CCCCC2)C2c3ccccc3SC12C(=O)OC` (configuration not stated) was tested. Which IC50 did it give?
The IC50 was 8.9 µM.

How did the IC50 turn out when `COC(=O)C1=C(N2CCC[C@@H]2C)[C@H]2c3ccccc3S[C@@]12C(=O)OC` was run?
The IC50 was 2.3 µM.

`COC(=O)C1=C(N2CC=CC2)C2c3ccccc3SC12C(=O)OC` (configuration not stated) was tested. Which IC50 did it give?
The IC50 was 5.1 µM.

For `COC(=O)C1=C(N2CCC[C@H]2C)[C@@H]2c3ccccc3S[C@]12C(=O)OC`, which IC50 is on record?
Its IC50 is 11 µM.

How did the IC50 turn out when `COC(=O)C1=C(N2CCCC2)[C@@H]2c3ccccc3S[C@]12C(=O)OC` was run?
The IC50 was > 20 µM.

With `CC(C)(C)OC(=O)C1=C(N2CCCC2)C2c3ccccc3SC12C(=O)OC(C)(C)C` (configuration not stated) as the molecule, how does the IC50 read?
Its IC50 is > 20 µM.

Which IC50 does the source give for `COC(=O)C1=C(N2CCCCC2)[C@@H]2c3ccccc3S[C@]12C(=O)OC` here?
The IC50 was > 40 µM.

With `CCOC(=O)C1=C(N2CCCC2)[C@@H]2c3ccccc3S[C@]12C(=O)OCC` as the molecule, how does the IC50 read?
Its IC50 is > 20 µM.

With `COC[C@H]1CCCN1C1=C(C(=O)OC)[C@@]2(C(=O)OC)Sc3ccccc3[C@@H]12` as the molecule, how does the IC50 read?
The IC50 was > 50 µM.

Which IC50 does the source give for `COC(=O)C1=C(N2CCC2)C2c3ccccc3SC12C(=O)OC` (configuration not stated) here?
Its IC50 is > 10 µM.

How did the IC50 turn out when `COC(=O)C1=C(N2CCC[C@@H]2C)[C@@H]2c3ccccc3S[C@]12C(=O)OC` was run?
Its IC50 is > 25 µM.

For `COC(=O)C1=C(N2CCC[C@H]2C)[C@H]2c3ccccc3S[C@@]12C(=O)OC`, which IC50 is on record?
Its IC50 is 0.5 µM.

With `CCOC(=O)C1=C(N2CCCC2)[C@H]2c3ccccc3S[C@@]12C(=O)OCC` as the molecule, how does the IC50 read?
Its IC50 is > 20 µM.

How did the IC50 turn out when `COC[C@H]1CCCN1C1=C(C(=O)OC)[C@]2(C(=O)OC)Sc3ccccc3[C@H]12` was run?
Its IC50 is 38 µM.

How did the IC50 turn out when `COC[C@H]1CCCN1C1=C(C(=O)OC)C2(C(=O)OC)Sc3ccccc3C12` (some centres not stated) was run?
The IC50 was 48 µM.

For `COC(=O)C1=C(N2CCCC2)[C@H]2c3ccccc3S[C@@]12C(=O)OC`, which IC50 is on record?
The IC50 was 0.8 µM.

Target: Human immunodeficiency virus type 1 reverse transcriptase (Human immunodeficiency virus 1, UniProt Q72547, K103N)
Assay: Inhibition of HIV1 reverse transcriptase K103N mutant in 293T cells
Type: cell-based

With `COC(=O)C1=C(N2CCCC2)C2c3ccccc3SC12C(=O)OC` (configuration not stated) as the molecule, how does the IC50 read?
Its IC50 is > 30 µM.

Target: Human immunodeficiency virus type 1 reverse transcriptase (Human immunodeficiency virus 1, UniProt Q72547, Y181C)
Assay: Inhibition of HIV1 reverse transcriptase Y181C mutant in 293T cells
Type: cell-based

Which IC50 does the source give for `COC(=O)C1=C(N2CCCC2)C2c3ccccc3SC12C(=O)OC` (configuration not stated) here?
The IC50 was > 30 µM.

Target: Human immunodeficiency virus type 1 reverse transcriptase (Human immunodeficiency virus 1, UniProt Q72547, Y188C)
Assay: Inhibition of HIV1 reverse transcriptase Y188C mutant in 293T cells
Type: cell-based

`COC(=O)C1=C(N2CCCC2)C2c3ccccc3SC12C(=O)OC` (configuration not stated) was tested. Which IC50 did it give?
The IC50 was > 30 µM.
